From patent publication US20250064809A1, “Inhibitors of Mutant RET Kinases for use in Treating Cancer” (Stemline Therapeutics, Inc., priority 2021, published 2025)

Legend:
[1] = tested on: Ba/F3 cells expressing KIF5B-RET with a G810 RET mutant domain; test: In vitro cell viability assay, mutant RET kinase cell lines compared to wild type; assay type: cell-based, mouse; conditions: Ba/F3 KIF5B-RET G810R, G810C, G810S versus wild type
Ba/F3 KIF5B-RET = test: In vitro cell viability assay (CellTiter-Glo); assay type: cell-based; conditions: Mus musculus, BaF3, 72 h; Ba/F3 KIF5B-RET (wild type RET), 3 days
Ba/F3 KIF5B-RET-G810C = test: In vitro cell viability assay (CellTiter-Glo); assay type: cell-based; conditions: Mus musculus, BaF3, 72 h, 3 days
Ba/F3 KIF5B-RET-G810S = test: In vitro cell viability assay (CellTiter-Glo); assay type: cell-based; conditions: Mus musculus, BaF3, 72 h, 3 days
Ba/F3 KIF5B-RET-G810R = test: In vitro cell viability assay (CellTiter-Glo); assay type: cell-based; conditions: Mus musculus, BaF3, 72 h, 3 days

increase in IC50 values against mutant RET kinase cell lines as compared to wild type RET kinase cell lines [1]	IC50 (Ba/F3 KIF5B-RET)	IC50 (Ba/F3 KIF5B-RET-G810C)	IC50 (Ba/F3 KIF5B-RET-G810S)	IC50 (Ba/F3 KIF5B-RET-G810R)	SMILES
3-44 fold	29.6 nM	551 nM	90.5 nM	1300 nM	CO[C@]1(C(=O)N[C@@H](C)c2ccc(-n3cc(F)cn3)nc2)CC[C@H](c2nc(C)cc(Nc3cc(C)[nH]n3)n2)CC1 [Pralsetinib, pralsetinib]
8-44 fold	24.4 nM	1080 nM	204 nM	986 nM	COc1ccc(CN2C3CC2CN(c2ccc(-c4cc(OCC(C)(C)O)cn5ncc(C#N)c45)cn2)C3)cn1 [Selpercatinib, selpercatinib]
